Data reported in ChEMBL document CHEMBL1201862, “PubChem BioAssay data set” (2004).
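Interpolation was linear, between the two tested concentrations surrounding the appropriate level; five concentrations were tested over 48 hours in 96-well plates. At the GI50, growth is halved.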 Activity calls are given as the source filed them. Cut-off read from the data, not from the text of the source: active = GI50 up to about 1.1 µM and inactive = higher.

Assays:
Assay in all cases: NCI-60 cell line screen, 48 h
786-0 = tested on: 786-0
A498 = tested on: A498
A549 = tested on: A549
ACHN = tested on: ACHN
BT-549 = tested on: BT-549
CCRF-CEM = tested on: CCRF-CEM
COLO 205 = tested on: COLO 205
DU-145 = tested on: DU-145
EKVX = tested on: EKVX
HCC 2998 = tested on: HCC 2998
HCT-116 = tested on: HCT-116
HCT-15 = tested on: HCT-15
HL-60 = tested on: HL-60
HOP-62 = tested on: HOP-62
HOP-92 = tested on: HOP-92
HT-29 = tested on: HT-29
Hs-578T = tested on: Hs-578T
IGROV-1 = tested on: IGROV-1
K562 = tested on: K562
KM12 = tested on: KM12
LOX IMVI = tested on: LOX IMVI
M14 = tested on: M14
MCF7 = tested on: MCF7
MDA-MB-231 = tested on: MDA-MB-231
MDA-MB-435 = tested on: MDA-MB-435
MDA-N = tested on: MDA-N
MOLT-4 = tested on: MOLT-4
Malme-3M = tested on: Malme-3M
NCI-H226 = tested on: NCI-H226
NCI-H23 = tested on: NCI-H23
NCI-H460 = tested on: NCI-H460
NCI-H522 = tested on: NCI-H522
NCI/ADR-RES = tested on: NCI/ADR-RES
OVCAR-3 = tested on: OVCAR-3
OVCAR-4 = tested on: OVCAR-4
OVCAR-5 = tested on: OVCAR-5
OVCAR-8 = tested on: OVCAR-8
PC-3 = tested on: PC-3
RXF 393 = tested on: RXF 393
SF-268 = tested on: SF-268
SF-295 = tested on: SF-295
SF-539 = tested on: SF-539
SK-MEL-28 = tested on: SK-MEL-28
SK-MEL-2 = tested on: SK-MEL-2
SK-MEL-5 = tested on: SK-MEL-5
SK-OV-3 = tested on: SK-OV-3
SN12C = tested on: SN12C
SNB-19 = tested on: SNB-19
SNB-75 = tested on: SNB-75
SR = tested on: SR
SW-620 = tested on: SW-620
T47D = tested on: T47D
TK-10 = tested on: TK-10
U-251 = tested on: U-251
UACC-257 = tested on: UACC-257
UACC-62 = tested on: UACC-62
UO-31 = tested on: UO-31
CAKI-1 = tested on: CAKI-1
RPMI-8226 = tested on: RPMI-8226

CCOC1(OCC)C2C=CC1C(COS(=O)(=O)c1ccc(C)cc1)C2COS(=O)(=O)c1ccc(C)cc1 (stereo unspecified)
GI50 (786-0): 33.3 µM (inactive)
GI50 (A498): 24 µM (inactive)
GI50 (A549): 34.6 µM (inactive)
GI50 (ACHN): 33.7 µM (inactive)
GI50 (BT-549): 29.3 µM (inactive)
GI50 (CCRF-CEM): 20 µM (inactive)
GI50 (COLO 205): 24.1 µM (inactive)
GI50 (DU-145): 39.8 µM (inactive)
GI50 (EKVX): 22.4 µM (inactive)
GI50 (HCC 2998): 38.3 µM (inactive)
GI50 (HCT-116): 21.5 µM (inactive)
GI50 (HCT-15): 26 µM
GI50 (HL-60): 16.9 µM (inactive)
GI50 (HOP-62): 45.8 µM (inactive)
GI50 (HOP-92): 12.8 µM (inactive)
GI50 (HT-29): 25.6 µM (inactive)
GI50 (Hs-578T): 37.3 µM (inactive)
GI50 (IGROV-1): 43.1 µM (inactive)
GI50 (K562): 20.5 µM (inactive)
GI50 (KM12): 31.1 µM (inactive)
GI50 (LOX IMVI): 24.9 µM (inactive)
GI50 (M14): 26.8 µM (inactive)
GI50 (MCF7): 30.2 µM (inactive)
GI50 (MDA-MB-231): 22.1 µM (inactive)
GI50 (MDA-MB-435): 29 µM (inactive)
GI50 (MDA-N): 28.8 µM (inactive)
GI50 (MOLT-4): 11.9 µM (inactive)
GI50 (Malme-3M): 24.4 µM (inactive)
GI50 (NCI-H226): 24.3 µM (inactive)
GI50 (NCI-H23): 39.1 µM (inactive)
GI50 (NCI-H460): 35.5 µM (inactive)
GI50 (NCI-H522): 18.1 µM (inactive)
GI50 (NCI/ADR-RES): 32 µM (inactive)
GI50 (OVCAR-3): 22.5 µM (inactive)
GI50 (OVCAR-4): 20.8 µM (inactive)
GI50 (OVCAR-5): 49.4 µM (inactive)
GI50 (OVCAR-8): 40.9 µM (inactive)
GI50 (PC-3): 11.6 µM (inactive)
GI50 (RXF 393): 39.9 µM (inactive)
GI50 (SF-268): 19.6 µM (inactive)
GI50 (SF-295): 96.6 µM (inactive)
GI50 (SF-539): 41.4 µM (inactive)
GI50 (SK-MEL-28): 84.9 µM (inactive)
GI50 (SK-MEL-2): 28.7 µM (inactive)
GI50 (SK-MEL-5): 15.2 µM (inactive)
GI50 (SK-OV-3): 33.3 µM (inactive)
GI50 (SN12C): 69.8 µM (inactive)
GI50 (SNB-19): 33.8 µM (inactive)
GI50 (SNB-75): 24.8 µM (inactive)
GI50 (SR): 1.12 µM (inactive)
GI50 (SW-620): 36.3 µM (inactive)
GI50 (T47D): 14.2 µM (inactive)
GI50 (TK-10): 41.2 µM (inactive)
GI50 (U-251): 29.9 µM (inactive)
GI50 (UACC-257): 25.4 µM (inactive)
GI50 (UACC-62): 20.4 µM (inactive)
GI50 (UO-31): 22.8 µM (inactive)

COC(=O)C1=NN2c3ccccc3CN([C@@H](C)c3ccccc3)C(=O)[C@@H]2[C@H]1c1ccccc1
GI50 (786-0): > 100 µM (inactive)
GI50 (A498): > 100 µM (inactive)
GI50 (A549): > 100 µM (inactive)
GI50 (ACHN): > 100 µM (inactive)
GI50 (BT-549): > 100 µM (inactive)
GI50 (CAKI-1): > 100 µM (inactive)
GI50 (CCRF-CEM): > 100 µM (inactive)
GI50 (COLO 205): > 100 µM (inactive)
GI50 (DU-145): > 100 µM (inactive)
GI50 (EKVX): > 100 µM (inactive)
GI50 (HCC 2998): > 100 µM (inactive)
GI50 (HCT-116): > 100 µM (inactive)
GI50 (HCT-15): > 100 µM
GI50 (HL-60): > 100 µM (inactive)
GI50 (HOP-62): > 100 µM (inactive)
GI50 (HOP-92): > 100 µM (inactive)
GI50 (HT-29): > 100 µM (inactive)
GI50 (Hs-578T): > 100 µM (inactive)
GI50 (K562): 13.3 µM (inactive)
GI50 (KM12): > 100 µM (inactive)
GI50 (LOX IMVI): > 100 µM (inactive)
GI50 (M14): > 100 µM (inactive)
GI50 (MCF7): > 100 µM (inactive)
GI50 (MDA-MB-231): > 100 µM (inactive)
GI50 (MDA-MB-435): > 100 µM (inactive)
GI50 (MDA-N): > 100 µM (inactive)
GI50 (MOLT-4): 5.66 µM (inactive)
GI50 (Malme-3M): > 100 µM (inactive)
GI50 (NCI-H226): > 100 µM (inactive)
GI50 (NCI-H23): > 100 µM (inactive)
GI50 (NCI-H460): > 100 µM (inactive)
GI50 (NCI-H522): 43.4 µM (inactive)
GI50 (NCI/ADR-RES): 32.1 µM (inactive)
GI50 (OVCAR-3): > 100 µM (inactive)
GI50 (OVCAR-4): > 100 µM (inactive)
GI50 (OVCAR-5): > 100 µM (inactive)
GI50 (OVCAR-8): > 100 µM (inactive)
GI50 (PC-3): 21.3 µM (inactive)
GI50 (RXF 393): > 100 µM (inactive)
GI50 (SF-268): > 100 µM (inactive)
GI50 (SF-295): > 100 µM (inactive)
GI50 (SF-539): > 100 µM (inactive)
GI50 (SK-MEL-28): > 100 µM (inactive)
GI50 (SK-MEL-2): > 100 µM (inactive)
GI50 (SK-MEL-5): > 100 µM (inactive)
GI50 (SK-OV-3): > 100 µM (inactive)
GI50 (SN12C): > 100 µM (inactive)
GI50 (SNB-19): > 100 µM (inactive)
GI50 (SNB-75): 30.3 µM (inactive)
GI50 (SR): 63 µM (inactive)
GI50 (SW-620): > 100 µM (inactive)
GI50 (T47D): 9.75 µM (inactive)
GI50 (TK-10): > 100 µM (inactive)
GI50 (U-251): > 100 µM (inactive)
GI50 (UACC-257): > 100 µM (inactive)
GI50 (UACC-62): > 100 µM (inactive)
GI50 (UO-31): > 100 µM (inactive)

COc1ccc2c(c1)nc1n2C(c2c(F)cccc2F)SC1 (stereo unspecified)
GI50 (786-0): 48.2 µM (inactive)
GI50 (A498): > 100 µM (inactive)
GI50 (A549): 34.8 µM (inactive)
GI50 (ACHN): > 100 µM (inactive)
GI50 (BT-549): 59 µM (inactive)
GI50 (CAKI-1): > 100 µM (inactive)
GI50 (CCRF-CEM): 47.5 µM (inactive)
GI50 (COLO 205): 40.6 µM (inactive)
GI50 (DU-145): > 100 µM (inactive)
GI50 (EKVX): 36.1 µM (inactive)
GI50 (HCC 2998): 55.1 µM (inactive)
GI50 (HCT-116): 31.5 µM (inactive)
GI50 (HCT-15): 35.2 µM
GI50 (HL-60): 27.9 µM (inactive)
GI50 (HOP-62): 76.4 µM (inactive)
GI50 (HOP-92): 76 µM (inactive)
GI50 (HT-29): 47.3 µM (inactive)
GI50 (Hs-578T): 35.2 µM (inactive)
GI50 (IGROV-1): 47.5 µM (inactive)
GI50 (K562): 43.8 µM (inactive)
GI50 (KM12): 25 µM (inactive)
GI50 (LOX IMVI): 45.6 µM (inactive)
GI50 (M14): 56.9 µM (inactive)
GI50 (MCF7): 38.3 µM (inactive)
GI50 (MDA-MB-231): > 100 µM (inactive)
GI50 (MDA-MB-435): 26.2 µM (inactive)
GI50 (MDA-N): 40 µM (inactive)
GI50 (MOLT-4): 35.2 µM (inactive)
GI50 (NCI-H226): 62.7 µM (inactive)
GI50 (NCI-H23): 29 µM (inactive)
GI50 (NCI-H460): 39.4 µM (inactive)
GI50 (NCI/ADR-RES): 38.2 µM (inactive)
GI50 (OVCAR-3): 62.8 µM (inactive)
GI50 (OVCAR-4): > 100 µM (inactive)
GI50 (OVCAR-5): > 100 µM (inactive)
GI50 (OVCAR-8): 83.8 µM (inactive)
GI50 (PC-3): 27.8 µM (inactive)
GI50 (RPMI-8226): 30.6 µM (inactive)
GI50 (RXF 393): 53.7 µM (inactive)
GI50 (SF-268): 32.2 µM (inactive)
GI50 (SF-295): 32.4 µM (inactive)
GI50 (SF-539): 47.3 µM (inactive)
GI50 (SK-MEL-28): > 100 µM (inactive)
GI50 (SK-MEL-2): 31.6 µM (inactive)
GI50 (SK-MEL-5): 24.2 µM (inactive)
GI50 (SK-OV-3): 40.8 µM (inactive)
GI50 (SN12C): > 100 µM (inactive)
GI50 (SNB-19): 21.4 µM (inactive)
GI50 (SNB-75): 39.3 µM (inactive)
GI50 (SR): 13.5 µM (inactive)
GI50 (SW-620): 60.5 µM (inactive)
GI50 (T47D): 71.6 µM (inactive)
GI50 (TK-10): 94.6 µM (inactive)
GI50 (U-251): 55.7 µM (inactive)
GI50 (UACC-257): 45.7 µM (inactive)
GI50 (UACC-62): 29.1 µM (inactive)
GI50 (UO-31): 56 µM (inactive)
